Paper PMC6350207 (Drug Metabolism Letters, 2018)

Tests used:
recombinant UGT enzymes = test: Reaction phenotyping with recombinant UGT Supersomes; format: in vitro ADME, human; conditions: substrate 20 µM, UGT 0.2 mg/mL, 2 hours
[1] = in humans; cited from earlier work

| SMILES | Metabolism to the corresponding glucuronide by recombinant UGT enzymes (recombinant UGT enzymes) | Share of drug metabolized to its corresponding glucuronide [1] [%] |
| --- | --- | --- |
| CC(C)Cc1ccc(CC(=O)O)cc1 [Ibufenac] | none of the recombinant UGT enzymes studied in the present investigation were found to metabolize ibufenac |  |
| CCCC(CCC)C(=O)O [valproic acid] |  | 50 |
